Series [1] deals with Pyricularia oryzae. It is filed as in vivo. The conditions noted are these: paddy rice (Aichi Asahi), submerged application, 10 g a.i./10 a, inoculated 10 days after treatment, lesions counted 6 days after inoculation.
In series [2] the test system is Colletotrichum orbiculare. The series is described as follows: Test for preventive effect for cucumber anthracnose. Format: in vivo. To be noted: cucumber (Sagamihanjiro), soil drench 10 ml at 1 ppm, inoculated 7 days later, lesions counted 7 days later. As for the experimental part:
Four cucumber seeds (variety: Sagamihanjiro) were sowed in a plastic cup of 5.5 cm in diameter, at a depth of 2 cm, and were grown in a greenhouse for 7 days. One of wettable powders prepared according to Example 5 was diluted with water so that the concentration of active ingredient became a given level. 10 ml of the dilution was poured into the soil at the root of young cucumber seedlings having cotyledons. 7 days later, a conidia suspension (10^5 to 10^6/ml) of Colletotrichum orbiculare which had been cultured in a PDA plate medium, was uniformly inoculated to the cucumber plant by hand spraying. The cup was allowed to stand, for infection, in a moist chamber of 25° C. for 24 hours. Then, the cup was allowed to stand on a basin in a glass greenhouse and, 7 day later, the number of lesions of all cotyledons in pot was examined. A protective value was calculated from the above expression 1 and evaluated according to the standard of Table 12.
Using the above-shown comparative compound, a wettable powder was prepared according to Example 5. A protective value thereof was calculated in the same manner as in the above Test Example.

In series [3] the test system is Stagonospora nodorum. The series is described as follows: Test for preventive effect on wheat glume blotch. Format: in vivo. The conditions noted are these: wheat (Nohrin No. 61), foliar spray 500 ppm, examined 12 days after inoculation. As for the experimental part: Disease development degree=[(n0×0+n1×1+n2×2+n3×3+n4×4)/4×N]×100 [Expression 2]
n4: number of leaves of disease development degree 4 Protective value=[1−(disease development degree in treated plants)/(disease development degree in untreated plants)]×100 [Expression 3]
10 wheat seeds (variety: Nohrin No. 61) were sowed in a plastic cup of 5.5 cm in diameter and were grown in a greenhouse for 7 days. One of wettable powders prepared in accordance with Example 5 was diluted with water so that the concentration of active ingredient became 500 ppm, a spreader (brand name: KUMITEN) was added for the dilution factor to be 3,000 times, and a sufficient amount of the resulting solution was sprayed onto the leaves of wheat (1.5- to 2-leaf stage) using a spray gun. After air-drying, a suspension of the pycniospores of Stagonospora nodorum was sprayed for inoculation. Immediately thereafter, the wheat leaves were transferred into a moist chamber of 25° C. and allowed to stand under a bright condition for 48 hours for infection. Then, the wheat leaves were transferred into the greenhouse and, 12 days after the inoculation, the disease development index of each first leaf was examined according to the standard of Table 15. A disease development degree was calculated from the above expression 2. A protective value (%) was calculated from the above expression 3 and evaluated according to the standard of Table 16.

By melting point is commonly meant the temperature, or range, at which the solid turns liquid.

In the case of `Cc1cc(COC(=O)c2cc(C)ns2)sn1` [Comparative compound, reference compound], the Evaluation result in series [1] was “D (protective value: less than 50.0%)”; in series [2] it was “C (protective value: less than 80.0% to 50.0% or more)”; in series [3], “D (protective value: less than 25%)”. Moreover, the Protective value in series [1] turned out to be 45.9%; in series [2], 73.3%.
As for `CC(=O)OCc1snc(Cl)c1Cl` [I-1], in series [1], the Evaluation result was “A (protective value: 100% to 90.0% or more)” and the Protective value came out at 96.1%. Further, in series [2], the Evaluation entry was “B (protective value: less than 90.0% to 80.0% or more)” and the Protective value amounted to 86.9%.
Turning to `CC=CC=CC(=O)OCc1snc(Cl)c1Cl` [I-24], the Evaluation entry in series [1] is “A (protective value: 100% to 90.0% or more)”; in series [2], “B (protective value: less than 90.0% to 80.0% or more)”. Also, the results for the Protective value in series [1] and in series [2] were 95.2% and 89.1%, respectively.
`CC(=S)OCc1snc(Cl)c1Cl` [I-28, (3,4-dichloroisothiazol-5-yl)methyl thioacetate]: in series [1], the Evaluation result is “C (protective value: less than 80.0% to 50.0% or more)” and the Protective value is on record as 79.9%.
Take `O=C(OCc1snc(Cl)c1Cl)c1ccccc1` [II-1, (3,4-dichloroisothiazol-5-yl)methyl benzoate]: the melting point lay within 79 to 80 °C. Also, in series [1], the Evaluation result is “A (protective value: 100% to 90.0% or more)” and the Protective value turned out to be 92.3%. Moreover, in series [2], the Evaluation result is recorded as “B (protective value: less than 90.0% to 80.0% or more)” and the Protective value is 89.1%.
On to `Cc1ccccc1C(=O)OCc1snc(Cl)c1Cl` [II-5], for which, in series [1], the Evaluation result was “A (protective value: 100% to 90.0% or more)” and the Protective value is 94.6%. Further, the Evaluation result in series [3] was “A (protective value: 100% to 75% or more)”.
The matching figures for `O=C(OCc1snc(Cl)c1Cl)c1ccccc1Cl` [II-14]: “A (protective value: 100% to 90.0% or more)”, 92.4% and “B (protective value: less than 75% to 50% or more)”.
For the compound `N#Cc1ccccc1C(=O)OCc1snc(Cl)c1Cl` [II-17], in series [1], the Evaluation result is on record as “A (protective value: 100% to 90.0% or more)” and the Protective value is reported as 98.2%.
As to `COC(=O)c1ccccc1C(=O)OCc1snc(Cl)c1Cl` [II-24], in series [1], the Evaluation result was “A (protective value: 100% to 90.0% or more)” and the Protective value is listed as 98.3%. Further, in series [3], the Evaluation entry is listed as “A (protective value: 100% to 75% or more)”.
For `O=C(OCc1snc(Cl)c1Cl)c1ccccc1[N+](=O)[O-]` [II-55], in series [1], the Evaluation result is “A (protective value: 100% to 90.0% or more)” and the Protective value worked out at 98.8%. Moreover, the Evaluation entry in series [3] is reported as “A (protective value: 100% to 75% or more)”.
In the same order, the values of `COc1ccccc1C(=O)OCc1snc(Cl)c1Cl` [II-57] are “A (protective value: 100% to 90.0% or more)”, 98.4% and “A (protective value: 100% to 75% or more)”.
In the case of `CS(=O)(=O)c1ccccc1C(=O)OCc1snc(Cl)c1Cl` [II-66], in series [1], the Evaluation entry is on record as “A (protective value: 100% to 90.0% or more)” and the Protective value is 97.8%. The Evaluation result in series [3] was “A (protective value: 100% to 75% or more)”.
Take `Cc1cccc(C)c1C(=O)OCc1snc(Cl)c1Cl` [II-77]: in series [1], the Evaluation result is listed as “C (protective value: less than 80.0% to 50.0% or more)” and the Protective value came out at 74.1%. In series [3], the Evaluation entry was “A (protective value: 100% to 75% or more)”.
In the same order, the values of `O=C(OCc1snc(Cl)c1Cl)c1c(Cl)cccc1Cl` [II-78] are “C (protective value: less than 80.0% to 50.0% or more)”, 77.5% and “B (protective value: less than 75% to 50% or more)”.
With `COc1cccc(OC)c1C(=O)OCc1snc(Cl)c1Cl` [II-79], the Evaluation entry in series [1] is given as “A (protective value: 100% to 90.0% or more)”; in series [3], “A (protective value: 100% to 75% or more)”. The Protective value in series [1] is 92.3%.
In the same order, the values of `Cc1cccc([N+](=O)[O-])c1C(=O)OCc1snc(Cl)c1Cl` [II-82] are “B (protective value: less than 90.0% to 80.0% or more)”, “A (protective value: 100% to 75% or more)” and 88.0%.

Source of the values: patent US8003675B2 (priority 2006, dated 2011).
